Results: PMC11053772, “Improved Chemical and Radiochemical Synthesis of Neuropeptide Y Y2 Receptor Antagonist N-Methyl-JNJ-31020028 and Preclinical Positron Emission Tomography Studies” (Pharmaceuticals, 2024)

What was measured:
[1] = test system: Y2 receptors; design: method as in PMID 19953226; conditions: cited from earlier work
[2] = test system: Y2 receptor; design: method as in PMID 24614224; conditions: living pigs; cited from earlier work
[3] = Ex vivo biodistribution by gamma counting one hour after i.v. injection; assay type: in vivo, C57BL/6N mice; conditions: mice, 1 h after i.v. injection
Description: The ex vivo biodistribution studies were performed one hour after the intravenous injection of the [^11C]2 injectable solution. For these studies, transcardiac perfusion with saline was performed, eliminating blood traces from the organs. […] Urinary excretion also occurred, though less radioactivity was found in the urine (84.43 ± 59.41%ID/g). The small intestine (98.64 ± 25.57%ID/g) and liver (14.33 ± 6.39%ID/g) were the organs with major uptake of the radiotracer. The high uptake in the small intestine is explained by the high density of Y2 receptors that exist in this organ, while the uptake in the liver is related to the metabolization of the tracer. Moderately low uptake was found in the stomach (3.082 ± 0.7135%ID/g), large intestine (2.18 ± 0.21%ID/g) and kidneys (1.99 ± 0.49%ID/g).
Biodistribution. In another cohort of animals (n = 5), ex vivo biodistribution (%ID/g of tissue) was performed by gamma counting through CRC®-55t well counter and CRC®-55tW radioisotope dose calibrator (Capintec, Ramsey, NJ, USA). Six regions of the brain were also isolated to characterise brain accumulation; the isolation of the specific brain regions was conducted following established protocols.

[4] = In vivo PET/MRI biodistribution of the radiotracer in mice; design: species or system C57BL/6N mice; conditions: i.v., 30–50 min post-injection, mean ± SEM, n = 7
Description: PET/MRI images of N-[^11C]Me-JNJ-31020028 and biodistribution studies were performed in healthy C57BL/6N mice. The radiotracer [^11C]2 injectable solutions were administered intravenously to the mice, previously anaesthetised, and the mice were put in the MicroPET scanner for PET imaging acquisition. The MRI acquisition was performed before injection due to the necessity of using equipment different from MicroPET.
PET/MRI Imaging. PET/MRI acquisitions were performed at the Institute for Nuclear Sciences Applied to Health (ICNAS) animal facility. During both acquisitions, the animals (n = 7) were anaesthetised using 1.5–2% isoflurane, and vital signs, such as temperature and respiratory cycle, were monitored. The radiotracer was administered intravenously (i.v.) in a total injected activity of 12.0 ± 2.9 µCi/g. Mice were placed in a MicroPET scanner based on resistive plate chamber detectors (RPC-PET). […] Quantitative imaging processing was performed using PMOD (PMOD, v 3.6; PMOD Technologies, Zürich, Switzerland, RRID: SCR_016547). […] Standardised uptake values (SUVs) were calculated as [[total positron (β+ radioactivity) concentration in the VOI (Bq/mL)]/[total positron (β+ radioactivity) injected (Bq)/weight (g)]] […] The percentage injected dose per gram (%ID/g) was calculated through Equation (2). […]

[5] = mean ± SEM, n = 5, listed as [^11C]2

CCN(CC)C(=O)C(c1ccccc1)N1CCN(c2ccc(NC(=O)c3ccccc3-c3cccnc3)cc2F)CC1 (stereo not shown) [JNJ-31020028, N-(4-{4-[2-(diethylamino)-2-oxo-1-phenylethyl]piperazin1-yl}-3-fluorophenyl)-2-pyridin-3-ylbenzamide]
Affinity and selectivity towards the Y2 receptors [1]: high affinity and selectivity

CCN(CC)C(=O)C(c1ccccc1)N1CCN(c2ccc(N([11CH3])C(=O)c3ccccc3-c3cccnc3)cc2F)CC1 (stereo not shown) [N-[^11C]Me-JNJ-31020028]
Blood–brain barrier permeation [2]: permeated the blood–brain barrier | Metabolization in the bloodstream [2]: slow metabolization in the bloodstream | Route of elimination ([3]; from uptake in bile): mainly eliminated through the hepatobiliary system | Ex vivo biodistribution, small intestine ([3]; intestine wall, mean ± SEM, n = 5): 98.64 ± 25.57 %ID/g | Brain ex vivo biodistribution, amygdala ([3]; mean ± SEM, n = 5): 0.9318 ± 0.08 %ID/g | Brain ex vivo biodistribution, cerebellum ([3]; mean ± SEM, n = 5): 0.646 ± 0.10 %ID/g | Brain ex vivo biodistribution, hippocampus ([3]; mean ± SEM, n = 5): 0.8976 ± 0.09 %ID/g | Brain ex vivo biodistribution, hypothalamus ([3]; mean ± SEM, n = 5): 1.03 ± 0.11 %ID/g | Brain ex vivo biodistribution, pre-frontal cortex (PFC) ([3]; mean ± SEM, n = 5): 0.636 ± 0.06 %ID/g | Brain ex vivo biodistribution, striatum ([3]; mean ± SEM, n = 5): 1.013 ± 0.11 %ID/g | Ex vivo biodistribution, blood ([3]; mean ± SEM, n = 5): 3.661 %ID/g | Ex vivo biodistribution, kidney ([3]; mean ± SEM, n = 5): 1.986 %ID/g | Ex vivo biodistribution, large intestine ([3]; mean ± SEM, n = 5): 2.18 ± 0.21 %ID/g | Ex vivo biodistribution, liver ([3]; mean ± SEM, n = 5): 14.33 ± 6.39 %ID/g | Ex vivo biodistribution, urine ([3]; mean ± SEM, n = 5): 84.43 ± 59.41 %ID/g | Ex vivo biodistribution, bile [3, 5]: 250.1 ± 23.97 %ID/g | Ex vivo biodistribution, blood [3, 5]: 3.66 ± 1.55 %ID/g | Ex vivo biodistribution, kidney [3, 5]: 1.99 ± 0.49 %ID/g | Ex vivo biodistribution, stomach [3, 5]: 3.082 ± 0.7135 %ID/g | Ex vivo biodistribution, faeces ([3]; n = 5): 3.149 %ID/g | Ex vivo biodistribution, heart ([3]; n = 5): 1.394 %ID/g | Ex vivo biodistribution, lung ([3]; n = 5): 0.5568 %ID/g | Ex vivo biodistribution, muscle ([3]; n = 5): 0.9318 %ID/g | Ex vivo biodistribution, spleen ([3]; n = 5): 1.504 %ID/g | Ex vivo biodistribution, whole brain ([3]; n = 5): 0.6362 %ID/g | Uptake in the brain (in vivo PET) [4]: 0.5187 ± 0.08 %ID/g | Uptake in the gut (in vivo PET) [4]: 12.57 ± 1.27 %ID/g
